Experimental data reported in PubChem BioAssay (NCI).
Values joined by “and” are separate entries in the source; they are usually repeats but may differ in a detail not shown here. Equal values may be shown once.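 Compound exposure: 48 hours, 5 concentrations, 96-well plates. The concentration for 50% growth inhibition is given as GI50. TGI: total growth inhibition.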

How the values were obtained:
Test in all cases: DTP human tumour cell line panel, 48 h
HOP-62 NSCLC = tested on: HOP-62 NSCLC
OVCAR-5 ovarian = tested on: OVCAR-5 ovarian
HT29 colon = tested on: HT29 colon
HL-60(TB) leukemia = tested on: HL-60(TB) leukemia
SK-MEL-2 melanoma = tested on: SK-MEL-2 melanoma
DLD-1 colon = tested on: DLD-1 colon
786-0 renal = tested on: 786-0 renal
MALME-3M melanoma = tested on: MALME-3M melanoma
HCT-116 colon = tested on: HCT-116 colon
ACHN renal = tested on: ACHN renal
XF 498 CNS = tested on: XF 498 CNS
SF-268 CNS = tested on: SF-268 CNS
CAKI-1 renal = tested on: CAKI-1 renal
HS 578T breast = tested on: HS 578T breast
A549 NSCLC = tested on: A549 NSCLC
LOX IMVI melanoma = tested on: LOX IMVI melanoma
RPMI-8226 leukemia = tested on: RPMI-8226 leukemia
DMS 273 small cell lung = tested on: DMS 273 small cell lung
SR leukemia = tested on: SR leukemia
SNB-78 CNS = tested on: SNB-78 CNS
HOP-92 NSCLC = tested on: HOP-92 NSCLC
OVCAR-8 ovarian = tested on: OVCAR-8 ovarian
SK-OV-3 ovarian = tested on: SK-OV-3 ovarian
UACC-257 melanoma = tested on: UACC-257 melanoma
NCI-H522 lung = tested on: NCI-H522 lung
IGROV1 ovarian = tested on: IGROV1 ovarian
HCT-15 colon = tested on: HCT-15 colon

## CCN(CC)CCCNc1ccc2ncn3c4ccc(O)cc4c(=O)c1c23
HOP-62 NSCLC
  GI50: 1.25 µM
  TGI: 19.2 µM
OVCAR-5 ovarian
  GI50: 4.39 µM
  TGI: 10.7 µM
HT29 colon
  GI50: 2.32 µM
  TGI: 7.78 µM
HL-60(TB) leukemia
  GI50: 0.17 µM
  TGI: 4.49 µM and 1.62 µM
SK-MEL-2 melanoma
  TGI: 19 µM
DLD-1 colon
  TGI: 16.1 µM
786-0 renal
  GI50: 0.802 µM
  TGI: 14.5 µM
MALME-3M melanoma
  GI50: 4.17 µM
  TGI: 19.1 µM
HCT-116 colon
  GI50: 0.359 µM
  TGI: 9.75 µM and 14.1 µM
ACHN renal
  GI50: 0.389 µM
  TGI: 3.78 µM
XF 498 CNS
  TGI: 14.2 µM
SF-268 CNS
  GI50: 2.66 µM
  TGI: 17.5 µM
CAKI-1 renal
  GI50: 0.205 µM
  TGI: 2.48 µM and 2.36 µM
HS 578T breast
  TGI: 7.28 µM
A549 NSCLC
  GI50: 0.336 µM
  TGI: 6.94 µM
LOX IMVI melanoma
  GI50: 0.95 µM
  TGI: 2.37 µM and 2.56 µM
RPMI-8226 leukemia
  GI50: 1.45 µM
  TGI: 21.8 µM
DMS 273 small cell lung
  TGI: 14.8 µM
SR leukemia
  GI50: 0.124 µM
  TGI: 2.86 µM and 1.53 µM
SNB-78 CNS
  TGI: 28.8 µM
HOP-92 NSCLC
  GI50: 1.28 µM
  TGI: 7.57 µM and 12.5 µM
OVCAR-8 ovarian
  GI50: 0.669 µM
  TGI: 13.4 µM
SK-OV-3 ovarian
  GI50: 0.369 µM
  TGI: 17.8 µM
UACC-257 melanoma
  TGI: 23.8 µM
NCI-H522 lung
  GI50: 0.218 µM
  TGI: 4.44 µM and 4.68 µM
IGROV1 ovarian
  GI50: 0.265 µM
  TGI: 8.58 µM and 18.6 µM
HCT-15 colon
  GI50: 2.03 µM
  TGI: 15.7 µM
